Experimental data published in patent US8614201B2 (Janssen Pharmaceutica NV, priority 2009, dated 2013).

Target: Human TRPA1 (Homo sapiens, UniProt O75762)
Assay: Alternative TRPA1 Ca2+ fluorometry assay (hTRPA1/TREx-HEK293 cells, Fluo-4, FDSS 6000)
Assay type: cell-based
Parameters: expressed in transfected cells
Conditions: Fluo-4-AM, agonist 6,11-dihydro-5H-dibenzo[b,e]azepine-10-carboxylic acid methyl ester 25 nM, procedure used for Examples 184, 190 to 192, 194 to 316
Method in brief: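 Tetracycline-induced (50 ng/ml, 24 h) hTRPA1/TREx-HEK293 cells were loaded with Fluo-4-AM and probenecid. Compound (1% DMSO final) was added after a 12 s baseline and the Ca2+ signal followed for 14 min, then 25 nM TRPA1 agonist dibenzazepine carboxylic acid methyl ester was applied. Signal is Em540 (ex 488 nm) relative to the first baseline reading.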

Human TRPA1, sequence (O75762 whole entry): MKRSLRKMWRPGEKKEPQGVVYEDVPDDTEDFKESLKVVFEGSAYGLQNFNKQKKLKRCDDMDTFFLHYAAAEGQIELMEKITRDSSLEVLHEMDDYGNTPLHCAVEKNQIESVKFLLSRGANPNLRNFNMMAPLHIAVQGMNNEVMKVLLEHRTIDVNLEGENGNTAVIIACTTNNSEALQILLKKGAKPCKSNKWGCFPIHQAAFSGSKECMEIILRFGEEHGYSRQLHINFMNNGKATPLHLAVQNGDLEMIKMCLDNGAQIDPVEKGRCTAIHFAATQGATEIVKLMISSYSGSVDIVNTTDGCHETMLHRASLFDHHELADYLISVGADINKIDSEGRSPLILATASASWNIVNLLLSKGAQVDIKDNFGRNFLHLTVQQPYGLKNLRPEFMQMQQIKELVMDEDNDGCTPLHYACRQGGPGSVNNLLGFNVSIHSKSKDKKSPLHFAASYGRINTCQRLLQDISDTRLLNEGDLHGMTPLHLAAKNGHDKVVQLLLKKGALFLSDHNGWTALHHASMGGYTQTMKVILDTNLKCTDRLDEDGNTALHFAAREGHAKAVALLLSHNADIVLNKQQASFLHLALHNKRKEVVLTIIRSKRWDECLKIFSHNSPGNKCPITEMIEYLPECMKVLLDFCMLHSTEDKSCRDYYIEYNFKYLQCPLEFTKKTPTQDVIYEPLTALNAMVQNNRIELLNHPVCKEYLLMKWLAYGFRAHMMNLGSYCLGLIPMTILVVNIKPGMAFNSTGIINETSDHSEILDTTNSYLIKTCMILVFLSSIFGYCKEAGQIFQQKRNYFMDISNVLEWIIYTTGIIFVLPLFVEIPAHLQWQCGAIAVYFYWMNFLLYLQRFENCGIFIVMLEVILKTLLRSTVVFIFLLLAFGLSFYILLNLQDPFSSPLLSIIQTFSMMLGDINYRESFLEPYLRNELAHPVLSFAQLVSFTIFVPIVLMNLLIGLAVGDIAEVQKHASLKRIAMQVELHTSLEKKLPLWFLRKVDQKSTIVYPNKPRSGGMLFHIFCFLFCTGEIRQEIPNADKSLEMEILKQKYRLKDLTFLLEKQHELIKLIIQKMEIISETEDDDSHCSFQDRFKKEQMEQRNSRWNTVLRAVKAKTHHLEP

| IC50 | Compound |
| --- | --- |
| ~708 nM | O=C(NCc1cc(-c2ccc(Br)cc2)nc(NC2CC2)n1)[C@@H]1CCCN1S(=O)(=O)c1ccc(F)cc1 [Example 290, 1-(4-Fluoro-benzenesulfonyl)-pyrrolidine-2S-carboxylic acid [6-(4-bromo-phenyl)-2-cyclopropylamino-pyrimidin-4-ylmethyl]-amide] |
| ~407 nM | C#CCNc1nc(CNC(=O)[C@@H]2CCCN2S(=O)(=O)c2ccc(F)cc2)cc(-c2ccc(C(F)(F)F)cc2)n1 [Example 291] |
| > 10000 nM | O=C(NCc1cc(-c2ccc3c(c2)OCO3)nc(NCCc2ccc(Cl)cc2Cl)n1)[C@@H]1CCCN1S(=O)(=O)c1ccc(F)cc1 [Example 292, 1-(4-Fluoro-benzenesulfonyl)-pyrrolidine-2S-carboxylic acid {6-benzo[1,3]dioxol-5-yl-2-[2-(2,4-dichloro-phenyl)-ethylamino]-pyrimidin-4-ylmethyl}-amide] |
| 2690 nM | O=C(NCc1cc(-c2ccc(Br)cc2)nc(NCCO)n1)[C@@H]1CCCN1S(=O)(=O)c1ccc(F)cc1 [Example 293, 1-(4-Fluoro-benzenesulfonyl)-pyrrolidine-2S-carboxylic acid [6-(4-bromo-phenyl)-2-(2-hydroxy-ethylamino)-pyrimidin-4-ylmethyl]-amide] |
| ~1000 nM | O=C(NCc1cc(-c2ccc(C(F)(F)F)cc2)nc(NCc2cccnc2)n1)[C@@H]1CCCN1S(=O)(=O)c1ccc(F)cc1 [Example 294, 1-(4-Fluoro-benzenesulfonyl)-pyrrolidine-2S-carboxylic acid [2-[(pyridin-3-ylmethyl)-amino]-6-(4-trifluoromethyl-phenyl)-pyrimidin-4-ylmethyl]-amide] |
| 1740 nM | O=C(NCc1cc(-c2ccc(Br)cc2)nc(NCCc2ccccn2)n1)[C@@H]1CCCN1S(=O)(=O)c1ccc(F)cc1 [Example 295, 1-(4-Fluoro-benzenesulfonyl)-pyrrolidine-2S-carboxylic acid [6-(4-bromo-phenyl)-2-(2-pyridin-2-yl-ethylamino)-pyrimidin-4-ylmethyl]-amide] |
| 4470 nM | CC1CCN(c2nc(CNC(=O)[C@@H]3CCCN3S(=O)(=O)c3ccc(F)cc3)cc(-c3ccc(Br)cc3)n2)CC1 [Example 296, 1-(4-Fluoro-benzenesulfonyl)-pyrrolidine-2S-carboxylic acid [6-(4-bromo-phenyl)-2-(4-methyl-piperidin-1-yl)-pyrimidin-4-ylmethyl]-amide] |
| 355 nM | O=C(NCc1cc(-c2ccc(C(F)(F)F)cc2)nc(N2CCN(Cc3ccc4c(c3)OCO4)CC2)n1)[C@@H]1CCCN1S(=O)(=O)c1ccc(F)cc1 [Example 297, 1-(4-Fluoro-benzenesulfonyl)-pyrrolidine-2S-carboxylic acid [2-(4-benzo[1,3]dioxol-5-ylmethyl-piperazin-1-yl)-6-(4-trifluoromethyl-phenyl)-pyrimidin-4-ylmethyl]-amide] |
| 4680 nM | NC(=O)C1CCCN(c2nc(CNC(=O)[C@@H]3CCCN3S(=O)(=O)c3ccc(F)cc3)cc(-c3ccc(C(F)(F)F)cc3)n2)C1 (stereo partly drawn) [Example 298, 1-[4-({[1-(4-Fluoro-benzenesulfonyl)-pyrrolidine-2S-carbonyl]-amino}-methyl)-6-(4-trifluoromethyl-phenyl)-pyrimidin-2-yl]-piperidine-3-carboxylic acid amide] |
| ~1590 nM | O=C(NCc1cc(-c2ccc(C(F)(F)F)cc2)nc(NCCC2C=Nc3ccccc32)n1)[C@@H]1CCCN1S(=O)(=O)c1ccc(F)cc1 (stereo partly drawn) [Example 299, 1-(4-Fluoro-benzenesulfonyl)-pyrrolidine-2S-carboxylic acid [2-[2-(3H-indol-3-yl)-ethylamino]-6-(4-trifluoromethyl-phenyl)-pyrimidin-4-ylmethyl]-amide] |
| 2510 nM | O=C(NCc1cc(-c2ccc(Br)cc2)nc(N2CCN(c3ccc(F)cc3)CC2)n1)[C@@H]1CCCN1S(=O)(=O)c1ccc(F)cc1 [Example 300, 1-(4-Fluoro-benzenesulfonyl)-pyrrolidine-2S-carboxylic acid {6-(4-bromo-phenyl)-2-[4-(4-fluoro-phenyl)-piperazin-1-yl]-pyrimidin-4-ylmethyl}-amide] |
| 5620 nM | NS(=O)(=O)c1ccc(CCNc2nc(CNC(=O)[C@@H]3CCCN3S(=O)(=O)c3ccc(F)cc3)cc(-c3ccc(Br)cc3)n2)cc1 [Example 301, 1-(4-Fluoro-benzenesulfonyl)-pyrrolidine-2S-carboxylic acid {6-(4-bromo-phenyl)-2-[2-(4-sulfamoyl-phenyl)-ethylamino]-pyrimidin-4-ylmethyl}-amide] |
| 8710 nM | O=C(NCc1cc(-c2ccc(Br)cc2)nc(N2CCC[C@H]2CO)n1)[C@@H]1CCCN1S(=O)(=O)c1ccc(F)cc1 [Example 302, 1-(4-Fluoro-benzenesulfonyl)-pyrrolidine-2S-carboxylic acid [6-(4-bromo-phenyl)-2-(2S-hydroxymethyl-pyrrolidin-1-yl)-pyrimidin-4-ylmethyl]-amide] |
| ~2820 nM | O=C(NCc1cc(-c2ccc(C(F)(F)F)cc2)nc(N2CCc3ccccc3C2)n1)[C@@H]1CCCN1S(=O)(=O)c1ccc(F)cc1 [Example 303, 1-(4-Fluoro-benzenesulfonyl)-pyrrolidine-2S-carboxylic acid [2-(3,4-dihydro-1H-isoquinolin-2-yl)-6-(4-trifluoromethyl-phenyl)-pyrimidin-4-ylmethyl]-amide] |
| 331 nM | O=C(NCc1cc(-c2ccc(C(F)(F)F)cc2)nc(N2CCN(c3ccc(F)cc3)CC2)n1)[C@@H]1CCCN1S(=O)(=O)c1ccc(F)cc1 [Example 304, 1-(4-Fluoro-benzenesulfonyl)-pyrrolidine-2S-carboxylic acid [2-[4-(4-fluoro-phenyl)-piperazin-1-yl]-6-(4-trifluoromethyl-phenyl)-pyrimidin-4-ylmethyl]-amide] |
| ~5890 nM | O=C(NCc1cc(-c2ccc3c(c2)OCO3)nc(N2CCN(Cc3ccc4c(c3)OCO4)CC2)n1)[C@@H]1CCCN1S(=O)(=O)c1ccc(F)cc1 [Example 305, 1-(4-Fluoro-benzenesulfonyl)-pyrrolidine-2S-carboxylic acid [6-benzo[1,3]dioxol-5-yl-2-(4-benzo[1,3]dioxol-5-ylmethyl-piperazin-1-yl)-pyrimidin-4-ylmethyl]-amide] |
| ~2090 nM | CC1CCN(c2nc(CNC(=O)[C@@H]3CCCN3S(=O)(=O)c3ccc(F)cc3)cc(-c3ccc4c(c3)OCO4)n2)CC1 [Example 306, 1-(4-Fluoro-benzenesulfonyl)-pyrrolidine-2S-carboxylic acid [6-benzo[1,3]dioxol-5-yl-2-(4-methyl-piperidin-1-yl)-pyrimidin-4-ylmethyl]-amide] |
| ~354 nM | O=C(NCc1cc(-c2ccc(C(F)(F)F)cc2)nc(NC2CCc3ccccc32)n1)[C@@H]1CCCN1S(=O)(=O)c1ccc(F)cc1 (stereo partly drawn) [Example 307, 1-(4-Fluoro-benzenesulfonyl)-pyrrolidine-2S-carboxylic acid [2-(indan-1-ylamino)-6-(4-trifluoromethyl-phenyl)-pyrimidin-4-ylmethyl]-amide] |
| 1780 nM | CC(C)[C@@H](CO)Nc1nc(CNC(=O)[C@@H]2CCCN2S(=O)(=O)c2ccc(F)cc2)cc(-c2ccc(C(F)(F)F)cc2)n1 [Example 308, 1-(4-Fluoro-benzenesulfonyl)-pyrrolidine-2S-carboxylic acid [2-(1-hydroxymethyl-2-methyl-propylamino)-6-(4-trifluoromethyl-phenyl)-pyrimidin-4-ylmethyl]-amide] |
| 1170 nM | CC(=O)c1ccc(N2CCN(c3nc(CNC(=O)[C@@H]4CCCN4S(=O)(=O)c4ccc(F)cc4)cc(-c4ccc(C(F)(F)F)cc4)n3)CC2)cc1 [Example 309, 1-(4-Fluoro-benzenesulfonyl)-pyrrolidine-2S-carboxylic acid [2-[4-(4-acetyl-phenyl)-piperazin-1-yl]-6-(4-trifluoromethyl-phenyl)-pyrimidin-4-ylmethyl]-amide] |
| 407 nM | CCCCNc1nc(CNC(=O)[C@@H]2CCCN2S(=O)(=O)c2ccc(F)cc2)cc(-c2ccc(C(F)(F)F)cc2)n1 [Example 310, 1-(4-Fluoro-benzenesulfonyl)-pyrrolidine-2S-carboxylic acid [2-butylamino-6-(4-trifluoromethyl-phenyl)-pyrimidin-4-ylmethyl]-amide] |
| ~1510 nM | CC(Nc1nc(CNC(=O)[C@@H]2CCCN2S(=O)(=O)c2ccc(F)cc2)cc(-c2ccc3c(c2)OCO3)n1)c1ccccc1 (stereo partly drawn) [Example 311, 1-(4-Fluoro-benzenesulfonyl)-pyrrolidine-2S-carboxylic acid [6-benzo[1,3]dioxol-5-yl-2-(1-phenyl-ethylamino)-pyrimidin-4-ylmethyl]-amide] |
| 295 nM | O=C(NCc1cc(-c2ccc(C(F)(F)F)cc2)nc(NCCc2cccnc2)n1)[C@@H]1CCCN1S(=O)(=O)c1ccc(F)cc1 [Example 312, 1-(4-Fluoro-benzenesulfonyl)-pyrrolidine-2S-carboxylic acid [2-(2-pyridin-3-yl-ethylamino)-6-(4-trifluoromethyl-phenyl)-pyrimidin-4-ylmethyl]-amide] |
| ~489 nM | CC(Nc1nc(CNC(=O)[C@@H]2CCCN2S(=O)(=O)c2ccc(F)cc2)cc(-c2ccc(C(F)(F)F)cc2)n1)c1ccccc1 (stereo partly drawn) [Example 313, 1-(4-Fluoro-benzenesulfonyl)-pyrrolidine-2S-carboxylic acid [2-(1-phenyl-ethylamino)-6-(4-trifluoromethyl-phenyl)-pyrimidin-4-ylmethyl]-amide] |
| ~1320 nM | CN1CCN(c2nc(CNC(=O)[C@@H]3CCCN3S(=O)(=O)c3ccc(F)cc3)cc(-c3ccc(C(F)(F)F)cc3)n2)CC1 [Example 314, 1-(4-Fluoro-benzenesulfonyl)-pyrrolidine-2-carboxylic acid [2-(4-methyl-piperazin-1-yl)-6-(4-trifluoromethyl-phenyl)-pyrimidin-4-ylmethyl]-amide] |
